Assays:
[1] = target: Beta-1 adrenergic receptor (Homo sapiens, UniProt P08588); assay: Displacement of [125I]iodocyanopindolol from human cloned adrenergic beta-1 receptor expressed in CHO cells; type: cell-based
[2] = target: Beta-2 adrenergic receptor (Homo sapiens, UniProt P07550); assay: Displacement of [125I]iodocyanopindolol from human cloned adrenergic beta-2 receptor expressed in CHO cells; type: cell-based
[3] = target: T1, Beta-3 adrenergic receptor (Homo sapiens, UniProt P13945); assay: Displacement of [125I]iodocyanopindolol from cloned human adrenergic beta-3 receptor expressed in CHO cells; type: cell-based
Target sequence in this assay (P13945 whole entry): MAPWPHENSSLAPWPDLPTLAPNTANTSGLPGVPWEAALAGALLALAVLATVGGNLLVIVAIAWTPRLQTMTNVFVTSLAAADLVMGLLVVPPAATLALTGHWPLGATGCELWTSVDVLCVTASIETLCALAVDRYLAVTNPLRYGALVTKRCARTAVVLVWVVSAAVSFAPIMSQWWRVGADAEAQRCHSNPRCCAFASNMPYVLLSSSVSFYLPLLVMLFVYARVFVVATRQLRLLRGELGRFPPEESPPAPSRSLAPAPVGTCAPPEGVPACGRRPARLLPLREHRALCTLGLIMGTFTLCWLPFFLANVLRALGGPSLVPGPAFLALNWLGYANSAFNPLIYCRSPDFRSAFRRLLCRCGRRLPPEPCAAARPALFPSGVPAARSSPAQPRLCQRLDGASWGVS

[4] = target: T1, Beta-3 adrenergic receptor; assay: Intrinsic activity at human cloned adrenergic beta3 receptor expressed in CHO cells assessed as cAMP accumulation relative to isoproterenol; type: functional, cell-based
Target sequence in this assay (P13945 whole entry, looked up): as the sequence (P13945 whole entry) above

Homo sapiens [5] = species on record: Homo sapiens; assay: Selectivity ratio of Ki for human adrenergic beta-1 receptor to Ki for human adrenergic beta-3 receptor
Homo sapiens [6] = species on record: Homo sapiens; assay: Selectivity ratio of Ki for adrenergic beta2 receptor Ki for adrenergic beta-3 receptor

Beta-1 adrenergic receptor, sequence (P08588 whole entry): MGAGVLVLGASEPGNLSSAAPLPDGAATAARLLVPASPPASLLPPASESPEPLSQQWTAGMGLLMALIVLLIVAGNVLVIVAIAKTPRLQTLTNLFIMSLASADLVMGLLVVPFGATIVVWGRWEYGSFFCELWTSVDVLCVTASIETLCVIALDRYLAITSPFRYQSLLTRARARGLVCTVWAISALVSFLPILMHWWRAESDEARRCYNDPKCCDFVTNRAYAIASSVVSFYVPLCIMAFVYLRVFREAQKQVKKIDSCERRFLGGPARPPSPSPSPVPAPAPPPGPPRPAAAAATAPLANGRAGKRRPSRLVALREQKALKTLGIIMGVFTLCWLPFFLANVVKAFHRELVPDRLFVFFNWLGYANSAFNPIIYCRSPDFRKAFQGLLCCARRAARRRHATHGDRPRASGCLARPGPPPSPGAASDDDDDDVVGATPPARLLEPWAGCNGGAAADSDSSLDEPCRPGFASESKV
Beta-2 adrenergic receptor, sequence (P07550 whole entry): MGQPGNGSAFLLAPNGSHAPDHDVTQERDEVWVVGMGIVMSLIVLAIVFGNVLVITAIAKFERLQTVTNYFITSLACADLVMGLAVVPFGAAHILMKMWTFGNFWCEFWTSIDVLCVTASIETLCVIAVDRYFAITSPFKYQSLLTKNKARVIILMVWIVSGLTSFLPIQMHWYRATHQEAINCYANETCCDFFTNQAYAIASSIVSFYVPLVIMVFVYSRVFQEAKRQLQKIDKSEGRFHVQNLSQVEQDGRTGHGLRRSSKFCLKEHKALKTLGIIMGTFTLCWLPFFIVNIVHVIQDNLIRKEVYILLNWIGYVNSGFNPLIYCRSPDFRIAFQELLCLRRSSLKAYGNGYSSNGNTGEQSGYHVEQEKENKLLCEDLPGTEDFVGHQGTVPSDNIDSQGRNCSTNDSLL

SMILES | Ki [1] [nM] | Ki [2] [nM] | Ki [3] [nM] | Intrinsic activity [4] [%] | Ratio Ki (Homo sapiens [5]) | Ratio Ki (Homo sapiens [6])
COc1ccc(CNC[C@H](O)COc2ccc(O)c(NS(C)(=O)=O)c2)cc1 |  |  | 360 | 46 | 3 | 0.4
COc1ccc(CCNCC(O)Cc2ccc(O)c(NS(C)(=O)=O)c2)cc1OC (stereo unspecified) |  |  | 7300 | 35 | 0.6 | 0.1
CS(=O)(=O)Nc1c(O)ccc([C@@H](O)CN)c1F |  |  | 120000 | 0 |  | 
COc1ccc([C@H](NC[C@H](O)c2ccc(O)c(NS(C)(=O)=O)c2)C(=O)Nc2ccccc2)cc1 (stereo in doubt; 1a) |  |  |  | 119 |  | 
CS(=O)(=O)Nc1cc(OC[C@@H](O)CN)ccc1O |  |  | 15000 | 47 | 0.08 | 0.04
COc1ccc(CNC[C@H](O)CCc2ccc(O)c(NS(C)(=O)=O)c2)cc1 |  |  | 3700 | 42 | 1 | 1
COc1ccc([C@H](NC[C@H](O)c2ccc(O)c(NS(C)(=O)=O)c2F)C(=O)Nc2ccccc2)cc1 |  |  |  | 58 |  | 
CS(=O)(=O)Nc1cc(CC[C@@H](O)CN[C@H](Cc2ccccc2)c2ccc(OC(F)F)cc2)ccc1O |  |  | 880 | 40 | 38 | 7
CS(=O)(=O)Nc1cc([C@@H](O)CN)ccc1O |  |  | 17000 | 93 |  | 
COc1ccc(CNCC(O)Cc2ccc(O)c(NS(C)(=O)=O)c2)cc1 (stereo unspecified) |  |  | 1100 | 50 | 2 | 0.3

More lines, in order of falling Ki [3], values ahead:

Ki [1] [nM] | Ki [2] [nM] | Ki [3] [nM] | Intrinsic activity [4] [%] | Ratio Ki (Homo sapiens [5]) | Ratio Ki (Homo sapiens [6]) | SMILES
 |  | 340 | 60 | 3 | 0.6 | CS(=O)(=O)Nc1cc(C[C@H](O)CNC(c2ccc(OC(F)F)cc2)c2ccc(OC(F)F)cc2)ccc1O
 |  | 270 | 77 |  |  | CS(=O)(=O)Nc1c(O)ccc([C@@H](O)CN[C@H](Cc2ccccc2)c2ccc(OC(F)F)cc2)c1F
 |  | 200 | 88 |  |  | COc1ccc(C(C)(C)NC[C@H](O)c2ccc(O)c(NS(C)(=O)=O)c2F)cc1
 |  | 170 | 75 | 3 | 0.2 | COc1ccc(CC(Cc2ccc(OC)c(OC)c2)NC[C@@H](O)Cc2ccc(O)c(NS(C)(=O)=O)c2)cc1OC
 |  | 160 | 60 | 112 | 27 | COc1ccc([C@@H](Cc2ccccc2)NC[C@H](O)CCc2ccc(O)c(NS(C)(=O)=O)c2)cc1OC
1500 | 38 | 133 | 70 |  |  | CS(=O)(=O)Nc1cc(C[C@H](O)CN[C@H](Cc2ccccc2)c2ccc(Cl)c(Cl)c2)ccc1O
3600 | 350 | 110 | 44 |  |  | COc1cccc([C@@H](Cc2ccccc2)NC[C@@H](O)Cc2ccc(O)c(NS(C)(=O)=O)c2)c1
6000 | 510 | 53 | 65 |  |  | COc1ccc([C@@H](Cc2ccccc2)NC[C@@H](O)Cc2ccc(O)c(NS(C)(=O)=O)c2)cc1
 |  | 24 | 68 | 24 | 6 | COc1ccc([C@@H](Cc2ccc(Cl)cc2)NC[C@@H](O)Cc2ccc(O)c(NS(C)(=O)=O)c2)cc1OC
 |  | 7 | 65 | 58 | 13 | COc1ccc([C@@H](Cc2ccccc2Cl)NC[C@@H](O)Cc2ccc(O)c(NS(C)(=O)=O)c2)cc1OC
 |  | 7 | 86 |  |  | COc1ccc(C(C)(C)NC[C@H](O)c2ccc(O)c(NS(C)(=O)=O)c2)cc1
 |  | 5 | 48 | 66 | 7 | CS(=O)(=O)Nc1cc(OC[C@@H](O)CN[C@H](Cc2ccccc2)c2ccc(OC(F)F)cc2)ccc1O
 |  | 3 | 67 | 120 | 15 | COc1ccc([C@@H](Cc2ccccc2)NC[C@H](O)COc2ccc(O)c(NS(C)(=O)=O)c2)cc1OC

— ChEMBL document CHEMBL1140016, “Arylpropanolamines: selective beta3 agonists arising from strategies to mitigate phase I metabolic transformations” (Bioorg Med Chem Lett, 2007)
